pIC50: −log10 of the molar value.

Results on 35 compounds are retold here after patent publication US20250122160A1, “PROTEIN TYROSINE PHOSPHATASE INHIBITORS AND METHODS OF USE THEREOF” (Calico Life Sciences LLC, priority 0001, published 2025).

Experiment [1] addresses T1, His tagged full-length PTPN1 protein (Homo sapiens, UniProt P18031).
T1 construct: made in house
T1 sequence (P18031 with tags, fused parts or gaps): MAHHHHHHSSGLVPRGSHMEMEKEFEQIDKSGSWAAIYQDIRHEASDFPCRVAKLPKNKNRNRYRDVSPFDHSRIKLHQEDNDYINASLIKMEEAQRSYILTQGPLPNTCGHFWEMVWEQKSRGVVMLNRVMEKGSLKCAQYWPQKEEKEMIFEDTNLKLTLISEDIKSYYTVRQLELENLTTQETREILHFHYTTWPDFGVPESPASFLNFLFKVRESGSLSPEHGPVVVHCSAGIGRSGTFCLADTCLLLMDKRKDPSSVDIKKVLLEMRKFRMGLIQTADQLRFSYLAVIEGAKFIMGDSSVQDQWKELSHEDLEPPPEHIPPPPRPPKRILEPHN
Nature of the experiment: Mobility shift assay (MSA) to determine potency of PTPN1 inhibitors. It counts as biochemical. The note with it: 0.5 nM enzyme, 2 μM substrate. The gist of the method:
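His-tagged full-length human PTPN1 (0.5 nM) preincubated with compound 10 min at room temperature in pH 7.5 HEPES buffer with EGTA, EDTA, Tween 20 and DTT. Dephosphorylation of 2 μM fluorescent phospho-insulin-receptor peptide over 10 min measured by mobility shift. IC50 from % inhibition across a 12-point, 1:3 dilution series.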

The target of experiment [2] is T2, His tagged PTPN2 (TC45) protein (Homo sapiens, UniProt P17706).
T2 construct: made in house
T2 sequence (P17706 with tags, fused parts or gaps isoform P17706-2): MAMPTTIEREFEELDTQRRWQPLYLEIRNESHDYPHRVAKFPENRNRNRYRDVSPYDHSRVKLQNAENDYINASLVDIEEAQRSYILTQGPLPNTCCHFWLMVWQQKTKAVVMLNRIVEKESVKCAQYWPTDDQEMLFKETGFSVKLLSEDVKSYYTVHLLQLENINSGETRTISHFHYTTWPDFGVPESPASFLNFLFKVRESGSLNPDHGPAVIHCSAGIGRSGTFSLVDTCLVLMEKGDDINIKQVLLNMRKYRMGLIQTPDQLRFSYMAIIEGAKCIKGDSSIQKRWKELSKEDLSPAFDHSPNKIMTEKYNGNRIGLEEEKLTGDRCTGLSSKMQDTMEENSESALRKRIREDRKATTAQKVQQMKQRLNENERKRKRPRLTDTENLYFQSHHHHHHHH
Briefly: Mobility shift assay (MSA) to determine potency of PTPN2 inhibitors. It counts as biochemical. As to conditions: 0.5 nM enzyme, 2 μM substrate. Summed up: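 His-tagged human PTPN2 (TC45), 0.5 nM, preincubated 10 min at room temperature with compound (12-point, 1:3 dilutions) in HEPES pH 7.5 buffer with EGTA, EDTA, Tween 20 and DTT. Then 2 μM OG488-labelled phospho-insulin-receptor peptide was added for 10 min and quenched. % conversion was read by mobility shift, and IC50 came from % inhibition.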

As usually defined, the pIC50 is −log10 of the IC50, conventionally taken in molar units. In the case of `O=C1CN(c2c(O)cc3c(c2F)CN(C(=O)NCCc2ccccc2)CC3)S(=O)(=O)N1` [Compound 284], the negative logarithm of the IC50 (pIC50) in experiment [1] and in experiment [2] was 7.00 to 8.00 in each case.

For the compound `O=C1CN(c2c(O)cc3c(c2F)C[C@H](NCc2cccnc2)CC3)S(=O)(=O)N1` [Compound 347, 5-[(7R)-1-fluoro-3-hydroxy-7-{[(pyridin-3-yl)methyl]amino}-5,6,7,8-tetrahydronaphthalen-2-yl]-1λ^6,2,5-thiadiazolidine-1,1,3-trione], the pIC50 in experiment [1] and in experiment [2] was 7.00 to 8.00 each time.

For `O=C1CN(c2c(O)cc3c(c2F)CN(CCCc2ccccc2F)CC3)S(=O)(=O)N1` [Compound 303], the pIC50 in experiment [1] is 7.00 to 8.00; in experiment [2], 8.00 to 9.00.

As for `NCC1(CCN[C@@H]2CCc3cc(O)c(N4CC(=O)NS4(=O)=O)c(F)c3C2)CCC1` [Compound 376, 5-[(7R)-7-({2-[1-(aminomethyl)cyclobutyl]ethyl}amino)-1-fluoro-3-hydroxy-5,6,7,8-tetrahydronaphthalen-2-yl]-1λ^6,2,5-thiadiazolidine-1,1,3-trione], the pIC50 in experiment [1] was 8.00 to 9.00; in experiment [2], over 9.00.

Take `CCCCNCC1CCc2cc(O)c(N3CC(=O)NS3(=O)=O)c(F)c2C1` (stereo not shown) [Compound 396, 5-{7-[(butylamino)methyl]-1-fluoro-3-hydroxy-5,6,7,8-tetrahydronaphthalen-2-yl}-1λ^6,2,5-thiadiazolidine-1,1,3-trione]: the negative logarithm of the IC50 (pIC50) in experiment [1] and in experiment [2] was 7.00 to 8.00 in each case.

In the case of `O=C1CN(c2c(O)cc3c(c2F)CN(C(=O)NCC2COC2)CC3)S(=O)(=O)N1` [Compound 283], the pIC50 was under 7.00 in experiment [1] and 7.00 to 8.00 in experiment [2].

On to `O=C1CN(c2c(O)cc3c(c2F)CC(NCc2ccccn2)CC3)S(=O)(=O)N1` (stereo not shown) [Compound 155], for which the pIC50 in experiment [1] and in experiment [2] was 7.00 to 8.00 in each case.

For `O=C1CN(c2c(O)cc3c(c2F)CN(CCCc2cccc(C(F)(F)F)c2)CC3)S(=O)(=O)N1` [Compound 294], the pIC50 in experiment [1] and in experiment [2] was 7.00 to 8.00 throughout.

Turning to `CC(C)CCCN1CCc2cc(O)c(N3CC(=O)NS3(=O)=O)c(F)c2C1=O` [Compound 387, 5-[8-fluoro-6-hydroxy-2-(4-methylpentyl)-1-oxo-1,2,3,4-tetrahydroisoquinolin-7-yl]-1λ^6,2,5-thiadiazolidine-1,1,3-trione], the pIC50 in experiment [1] and in experiment [2] was under 7.00 each time.

Consider `Cc1nn(C)c(C)c1CCN1CCc2cc(O)c(N3CC(=O)NS3(=O)=O)c(F)c2C1` [Compound 209], for which the negative logarithm of the IC50 (pIC50) in experiment [1] and in experiment [2] was 8.00 to 9.00 each time.

With `Cc1n[nH]c(C)c1CCN1Cc2c(cc(O)c(N3CC(=O)NS3(=O)=O)c2F)C(F)(F)C1` [Compound 320], the pIC50 in experiment [1] and in experiment [2] was under 7.00 in each case.

Consider `CC(C)C(F)CNC1CCc2cc(O)c(N3CC(=O)NS3(=O)=O)c(F)c2C1` (stereo not shown) [Compound 334, 5-{1-fluoro-7-[(2-fluoro-3-methylbutyl)amino]-3-hydroxy-5,6,7,8-tetrahydronaphthalen-2-yl}-1λ^6,2,5-thiadiazolidine-1,1,3-trione], for which the pIC50 in experiment [1] and in experiment [2] was 8.00 to 9.00 each time.

For the compound `O=C1CN(c2c(O)cc3c(c2F)C[C@H](NCC2CCOC2)CC3)S(=O)(=O)N1` (stereo partly drawn) [Compound 361, 5-[(7R)-1-fluoro-3-hydroxy-7-{[(oxolan-3-yl)methyl]amino}-5,6,7,8-tetrahydronaphthalen-2-yl]-1λ^6,2,5-thiadiazolidine-1,1,3-trione], the pIC50 in experiment [1] was 7.00 to 8.00; in experiment [2] it was 8.00 to 9.00.

For the compound `CC(C)(C)OC(=O)N[C@H]1CC[C@H](CCN2CCc3cc(O)c(N4CC(=O)NS4(=O)=O)c(F)c3C2)CC1` [Compound 300], the negative-log IC50 (pIC50) in experiment [1] and in experiment [2] was 8.00 to 9.00 throughout.

As for `CC(C)C1CN(C2CCc3cc(O)c(N4CC(=O)NS4(=O)=O)c(F)c3C2)CCO1` (stereo not shown) [Compound 181], the pIC50 in experiment [1] and in experiment [2] was 8.00 to 9.00 throughout.

In the case of `COCCCNC(=O)N1CCc2cc(O)c(N3CC(=O)NS3(=O)=O)c(F)c2C1` [Compound 278], the negative-log IC50 (pIC50) in experiment [1] and in experiment [2] was 7.00 to 8.00 in each case.

`O=C1CN(c2c(O)cc3c(c2F)CCCO3)S(=O)(=O)N1` [Compound 111, 5-(5-fluoro-7-hydroxy-3,4-dihydro-2H-1-benzopyran-6-yl)-1λ^6,2,5-thiadiazolidine-1,1,3-trione]: the pIC50 in experiment [1] and in experiment [2] was 7.00 to 8.00 in each case.

As to `Cn1nccc1CNC(=O)N1CCc2cc(O)c(N3CC(=O)NS3(=O)=O)c(F)c2C1` [Compound 272], the negative logarithm of the IC50 (pIC50) in experiment [1] and in experiment [2] was 7.00 to 8.00 in each case.

For the compound `Cc1nn(CC(F)F)c(C)c1CCN1CCc2cc(O)c(N3CC(=O)NS3(=O)=O)c(F)c2C1` [Compound 253], the pIC50 in experiment [1] and in experiment [2] was 8.00 to 9.00 each time.

`Cc1n[nH]c(C)c1CCN1CCc2cc(O)c(N3CC(=O)NS3(=O)=O)c(F)c2C1` [Compound 194]: the pIC50 in experiment [1] and in experiment [2] was 8.00 to 9.00 in each case.

For the compound `Cc1nn(C(F)F)c(C)c1CCN1CCc2cc(O)c(N3CC(=O)NS3(=O)=O)c(F)c2C1` [Compound 238], the negative-log IC50 (pIC50) in experiment [1] and in experiment [2] was 8.00 to 9.00 each time.

As for `CC(C)CCC(=O)N1CCc2cc(O)c(N3CC(=O)NS3(=O)=O)c(F)c2C1` [Compound 144], the pIC50 in experiment [1] was 7.00 to 8.00; in experiment [2], 8.00 to 9.00.

In the case of `CC(C)CCC[C@H]1Cc2c(cc(O)c(N3CC(=O)NS3(=O)=O)c2F)CN1` [Compound 325], the pIC50 in experiment [1] and in experiment [2] was 8.00 to 9.00 each time.

In the case of `CC1(CCNC(=O)N2CCc3cc(O)c(N4CC(=O)NS4(=O)=O)c(F)c3C2)CC1` [Compound 281], the pIC50 in experiment [1] and in experiment [2] was 7.00 to 8.00 in each case.

Turning to `O=C1CN(c2c(O)cc3c(c2F)CN(Cc2ccccn2)CC3)S(=O)(=O)N1` [Compound 184], the negative logarithm of the IC50 (pIC50) in experiment [1] and in experiment [2] was under 7.00 each time.

Consider `CC(C)CCNC(=O)N1CCc2cc(O)c(N3CC(=O)NS3(=O)=O)c(F)c2C1` [Compound 205], for which the pIC50 was 7.00 to 8.00 in experiment [1] and 8.00 to 9.00 in experiment [2].

Regarding `O=C1CN(c2c(O)cc3c(c2F)CN(CC2CC(F)(F)C2)CC3)S(=O)(=O)N1` [Compound 162], the values for the pIC50 in experiment [1] and in experiment [2] were 7.00 to 8.00 and 8.00 to 9.00, respectively.

Regarding `O=C1CN(c2c(O)cc3c(c2F)CN(C(=O)NCC2CCOCC2)CC3)S(=O)(=O)N1` [Compound 261], the pIC50 in experiment [1] and in experiment [2] was 7.00 to 8.00 in each case.

As to `NCC(F)(F)CCCN[C@@H]1CCc2cc(O)c(N3CC(=O)NS3(=O)=O)c(F)c2C1` [Compound 409, 5-{(7R)-7-[(5-amino-4,4-difluoropentyl)amino]-1-fluoro-3-hydroxy-5,6,7,8-tetrahydronaphthalen-2-yl}-1λ^6,2,5-thiadiazolidine-1,1,3-trione], the pIC50 in experiment [1] and in experiment [2] was 8.00 to 9.00 in each case.

Consider `CC(C)CNC(=O)N1CCc2cc(O)c(N3CC(=O)NS3(=O)=O)c(F)c2C1` [Compound 206], for which the pIC50 in experiment [1] and in experiment [2] was 7.00 to 8.00 throughout.

Consider `CC(C)CCN[C@H]1Cc2c(cc(O)c(N3CC(=O)NS3(=O)=O)c2F)C[C@@H]1O` [Compound 411, 5-{(6S,7S)-1-fluoro-3,6-dihydroxy-7-[(3-methylbutyl)amino]-5,6,7,8-tetrahydronaphthalen-2-yl}-1λ^6,2,5-thiadiazolidine-1,1,3-trione], for which the negative-log IC50 (pIC50) in experiment [1] was 8.00 to 9.00; in experiment [2] it was over 9.00.

Turning to `O=C1CN(c2c(O)cc3c(c2F)C[C@H](NCC2C4CCCC42)CO3)S(=O)(=O)N1` (mixture of isomers) [Compound 383, 5-[(3S)-3-({[(1RS,5SR)-bicyclo[3.1.0]hexan-6-yl]methyl}amino)-5-fluoro-7-hydroxy-3,4-dihydro-2H-1-benzopyran-6-yl]-1λ^6,2,5-thiadiazolidine-1,1,3-trione], the negative-log IC50 (pIC50) in experiment [1] and in experiment [2] was 7.00 to 8.00 each time.

For `CC(C)CCN[C@H]1Cc2c(cc(O)c(N3CC(=O)NS3(=O)=O)c2F)C[C@H]1O` [Compound 393, 5-{(6R,7S)-1-fluoro-3,6-dihydroxy-7-[(3-methylbutyl)amino]-5,6,7,8-tetrahydronaphthalen-2-yl}-1λ^6,2,5-thiadiazolidine-1,1,3-trione], the pIC50 in experiment [1] and in experiment [2] was 8.00 to 9.00 throughout.

For the compound `CN1CCN(CCCN2CCc3cc(O)c(N4CC(=O)NS4(=O)=O)c(F)c3C2)CC1` [Compound 232], the negative-log IC50 (pIC50) in experiment [1] was 7.00 to 8.00; in experiment [2], under 7.00.

Consider `C[C@@H](N)CN1CCc2cc(O)c(N3CC(=O)NS3(=O)=O)c(F)c2C1` [Compound 246], for which the pIC50 in experiment [1] and in experiment [2] was 7.00 to 8.00 in each case.
